The structures appear in SMILES notation.

The assay addresses T1, human TRPM5 ion channel (Homo sapiens, UniProt Q9NZQ8).
T1 sequence (Q9NZQ8 1-1165): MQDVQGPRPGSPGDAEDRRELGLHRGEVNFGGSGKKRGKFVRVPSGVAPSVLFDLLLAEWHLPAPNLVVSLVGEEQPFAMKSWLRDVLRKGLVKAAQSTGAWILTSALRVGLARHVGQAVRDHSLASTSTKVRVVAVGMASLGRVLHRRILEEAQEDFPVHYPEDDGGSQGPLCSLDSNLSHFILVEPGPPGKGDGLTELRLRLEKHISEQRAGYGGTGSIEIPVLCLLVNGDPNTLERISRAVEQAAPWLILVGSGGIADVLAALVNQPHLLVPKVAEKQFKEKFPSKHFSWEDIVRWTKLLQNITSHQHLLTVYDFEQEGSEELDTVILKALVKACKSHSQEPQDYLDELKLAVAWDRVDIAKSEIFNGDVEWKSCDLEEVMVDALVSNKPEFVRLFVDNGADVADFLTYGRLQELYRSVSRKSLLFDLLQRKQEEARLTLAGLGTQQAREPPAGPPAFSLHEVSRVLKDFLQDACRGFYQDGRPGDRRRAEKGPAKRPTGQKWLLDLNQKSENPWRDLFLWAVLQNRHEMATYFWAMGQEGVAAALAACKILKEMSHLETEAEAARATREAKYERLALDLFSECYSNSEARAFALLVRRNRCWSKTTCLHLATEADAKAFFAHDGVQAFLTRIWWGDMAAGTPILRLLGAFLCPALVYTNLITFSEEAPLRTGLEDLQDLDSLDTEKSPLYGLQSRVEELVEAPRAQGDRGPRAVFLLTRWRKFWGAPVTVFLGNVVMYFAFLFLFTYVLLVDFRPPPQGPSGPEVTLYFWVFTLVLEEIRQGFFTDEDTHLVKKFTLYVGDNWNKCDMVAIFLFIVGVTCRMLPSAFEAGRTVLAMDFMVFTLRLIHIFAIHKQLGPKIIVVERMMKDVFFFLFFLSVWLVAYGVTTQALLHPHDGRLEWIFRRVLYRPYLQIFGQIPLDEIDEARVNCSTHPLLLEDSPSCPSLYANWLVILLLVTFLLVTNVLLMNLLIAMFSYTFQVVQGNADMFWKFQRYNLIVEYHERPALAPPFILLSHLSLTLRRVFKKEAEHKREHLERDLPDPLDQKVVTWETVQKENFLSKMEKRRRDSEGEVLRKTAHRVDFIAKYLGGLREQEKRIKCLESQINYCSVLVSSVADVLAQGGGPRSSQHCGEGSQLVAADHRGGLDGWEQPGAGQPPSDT
Kind of assay: FLIPR-based assay for membrane potential and calcium mobilization (TRPM5 inhibiting activity). In kind it is cell-based. As to conditions: live cells, 30° C., read-out: hTrpM5 IC50. As to the method:
The activity of compounds of the present invention on human TRPM5 ion channel was measured using the FLIPR-based (fluorescent imaging plate reader) assay for membrane potential and calcium mobilization described in U.S. Patent Application Publication No. 2008/0249189 A1 in live cells, wherein the assay is performed at 30° C. Determinations of affinity and efficacy were derived from measurements of TRPM5 activity over a range of compound concentrations. The concentration range was achieved by 10 serial dilutions (either 2-fold or 3-fold decrements) from a maximum concentration of no greater that 100 μM. Curver fitting was performed on the resulting data to yield concentration-effect functions, from which the half-maximal inhibitory concentration (IC50) was derived for all the tested compounds. The IC50 values were considered to be accurate reflections of affinity between the compounds and TRPM5.
Representative compounds of the present invention have been tested in the FLIPR assay for TRPM5 inhibiting activity, which is described in detail above.
For orientation: Calcium assays in cells follow changes in intracellular calcium, usually with a dye or a luminescent sensor.
Broadly, the IC50 is the concentration that inhibits the measured activity by half. For the molecule `COc1ccc(/C=N/NC(=O)[C@@H]2C[C@H]2c2cccc(C(F)(F)F)c2)cc1OC` (relative stereo) [Example 6, trans-N′-(3,4-Dimethoxybenzylidene)-2-(3-(trifluoromethyl)phenyl)cyclopropanecarbohydrazide], the IC50 came out at 37 nM.

Turning to `COc1cc(/C=N/NC(=O)[C@@H]2C[C@H]2c2ccccc2)cc2cccnc12` (relative stereo) [Example 22, trans-N′-((8-Methoxyquinolin-6-yl)methylene)-2-phenylcyclopropanecarbohydrazide], the IC50 is 90 nM.

As for `O=C(N/N=C/c1cc(Cl)c2ncccc2c1)[C@@H]1C[C@H]1c1ccccc1` (relative stereo) [Example 25, trans-N′-((8-Chloroquinolin-6-yl)methylene)-2-phenylcyclopropanecarbohydrazide], the IC50 is 340 nM.

Regarding `O=C(N/N=C/c1cc(Cl)c2ncccc2c1)[C@@H]1C[C@H]1c1cccc(Cl)c1` (relative stereo) [Example 28, trans-2-(3-Chlorophenyl)-N′-((8-chloroquinolin-6-yl)methylene)cyclopropanecarbohydrazide], the IC50 is 650 nM.

As for `Cc1cc(/C=N/NC(=O)[C@@H]2C[C@H]2c2cccc(Cl)c2)cc2cccnc12` (relative stereo) [Example 29, trans-2-(3-Chlorophenyl)-N′-((8-methylquinolin-6-yl)methylene)cyclopropanecarbohydrazide], the IC50 worked out at 800 nM.

On to `O=C(N/N=C/c1ccc2ncccc2n1)[C@@H]1C[C@H]1c1cccc(Cl)c1` (relative stereo) [Example 31, trans-N′-((1,5-Naphthyridin-2-yl)methylene)-2-(3-chlorophenyl)cyclopropanecarbohydrazide], for which the IC50 was about 50000 nM.

Take `COc1ccc(/C=N/NC(=O)[C@@H]2C[C@H]2c2ccc3ccccc3n2)cc1OC` (relative stereo) [Example 36, trans-N′-(3,4-Dimethoxybenzylidene)-2-(quinolin-2-yl)cyclopropanecarbohydrazide]: the half-inhibitory concentration (IC50) is 930 nM.

In the case of `COc1ccc(/C=N/NC(=O)[C@@H]2C[C@H]2c2cccc(C)n2)cc1OC` (relative stereo) [Example 37, trans-N′-(3,4-Dimethoxybenzylidene)-2-(6-methylpyridin-2-yl)cyclopropanecarbohydrazide], the IC50 stood at 3200 nM.

Regarding `COc1ccc(C=NNC(=O)[C@@H]2C[C@H]2c2cnc3ccccc3c2)cc1OC` (relative stereo) [Example 38, trans-N′-(3,4-Dimethoxybenzylidene)-2-(quinolin-3-yl)cyclopropanecarbohydrazide], the IC50 came out at 610 nM.

On to `COc1ccc([C@@H]2C[C@H]2C(=O)N/N=C/c2cc(C)c3ncccc3c2)cn1` (relative stereo) [Example 41, trans-2-(6-Methoxypyridin-3-yl)-N′-((8-methylquinolin-6-yl)methylene)cyclopropanecarbohydrazide], for which the IC50 amounted to 5000 nM.

In the case of `COc1cccc([C@@H]2C[C@H]2C(=O)N/N=C/c2cc(C)c3ncccc3c2)n1` (relative stereo) [Example 42, trans-2-(6-Methoxypyridin-2-yl)-N′-((8-methylquinolin-6-yl)methylene)cyclopropanecarbohydrazide], the IC50 was 410 nM.

For `Cc1cc(C=NNC(=O)C2CC2c2ccccc2)cc2cccnc12` (single isomer, unassigned) [11 (E1), trans-N′-((8-Methylquinolin-6-yl)methylene)-2-phenylcyclopropanecarbohydrazide, E1 enantiomer], the IC50 was over 10000 nM.

As for `Cc1cc(C=NNC(=O)C2CC2c2ccccc2)cc2cccnc12` (single isomer, unassigned) [11 (E2), trans-N′-((8-Methylquinolin-6-yl)methylene)-2-phenylcyclopropanecarbohydrazide, E2 enantiomer], the IC50 stood at 240 nM.

Take `COc1ccc(/C=N/NC(=O)C(C)Sc2cccc(Cl)c2)cc1OC` (stereo not shown) [Example 1, 2-(3-Chlorophenylthio)-N′-(3,4-dimethoxybenzylidene)propanehydrazide]: the IC50 came to 55 nM.

Turning to `COc1ccc(/C=N/NC(=O)CCc2cn(C)c3ccccc23)cc1OC` [Example 2, N′-(3,4-dimethoxybenzylidene)-3-(1-methyl-1H-indol-3-yl)propanehydrazide], the IC50 stood at 51 nM.

Consider `Cc1cn(CCC(=O)N/N=C/c2cc(C)c3ncccc3c2)c2ccccc12` [Example 3, 3-(3-Methyl-1H-indol-1-yl)-N′-((8-methylquinolin-6-yl)methylene)propanehydrazide], for which the IC50 amounted to 30 nM.

With `COc1cc(/C=N/NC(=O)CCn2cc(C)c3ccccc32)ccc1OCCCO` [Example 4, N′-(4-(3-Hydroxypropoxy)-3-methoxybenzylidene)-3-(3-methyl-1H-indol-1-yl)propanehydrazide], the IC50 is 500 nM.

With `COc1ccc(/C=N/NC(=O)NCCc2ccc(Cl)cc2)cc1OC` [Example 5, N-(4-Chlorophenethyl)-2-(3,4-dimethoxybenzylidene)hydrazinecarboxamide], the IC50 amounted to 51 nM.

Turning to `COc1ccc(/C=N/NC(=O)CCn2cc(C)c3c(C)cccc32)cc1OC` [Example 7, N′-(3,4-Dimethoxybenzylidene)-3-(3,4-dimethyl-1H-indol-1-yl)propanehydrazide], the IC50 was found to be 1.8 nM.

For `COc1cc(F)c(/C=N/NC(=O)CCn2cc(C)c3c(C)cccc32)cc1OC` [Example 8, 3-(3,4-Dimethyl-1H-indol-1-yl)-N′-(2-fluoro-4,5-dimethoxybenzylidene)propanehydrazide], the IC50 is 3 nM.

With `COc1ccc(/C=N/N(C)C(=O)C2CC2c2ccccc2)cc1OC` (stereo not drawn) [Example 9, trans-N′-(3,4-Dimethoxybenzylidene)-N-methyl-2-phenylcyclopropanecarbohydrazide], the IC50 was found to be 5000 nM.

`COc1cc(/C=N/NC(=O)CCn2cc(C)c3c(C)cccc32)ccc1OCc1ccccc1` [Example 12, N′-(4-(Benzyloxy)-3-methoxybenzylidene)-3-(3,4-dimethyl-1H-indol-1-yl)propanehydrazide]: the IC50 turned out to be 80 nM.

`COc1cc(/C=N/NC(=O)CCn2cc(C)c3c(C)cccc32)ccc1OCc1ccccn1` [Example 13, 3-(3,4-Dimethyl-1H-indol-1-yl)-N′-(3-methoxy-4-(pyridin-2-ylmethoxy)benzylidene)propanehydrazide]: the IC50 came to 66 nM.

In the case of `COc1ccc(/C=N/NC(=O)CCn2cc(C)c3cccnc32)cc1OC` [Example 14, N′-(3,4-Dimethoxybenzylidene)-3-(3-methyl-1H-pyrrolo[2,3-b]pyridin-1-yl)propanehydrazide], the IC50 was 680 nM.

`COc1cc(/C=N/NC(=O)CCn2cc(C)c3c(C)cccc32)cc(Cl)c1OC` [Example 15, N′-(3-Chloro-4,5-dimethoxybenzylidene)-3-(3,4-dimethyl-1H-indol-1-yl)propanehydrazide]: the IC50 turned out to be 38 nM.

Take `COc1cc(/C=N/NC(=O)CCn2cc(C)c3c(C)cccc32)ccc1OCc1cccnc1` [Example 16, 3-(3,4-Dimethyl-1H-indol-1-yl)-N′-(3-methoxy-4-(pyridin-3-ylmethoxy)benzylidene)propanehydrazide]: the IC50 was found to be 53 nM.

For `COc1ccc(/C=N/NC(=O)CCn2cnc3c(C)cccc32)cc1OC` [Example 17, N′-(3,4-Dimethoxybenzylidene)-3-(4-methyl-1H-benzo[d]imidazol-1-yl)propanehydrazide], the IC50 is 2400 nM.

As to `COc1cc(/C=N/NC(=O)CCn2cc(C)c3c(C)cccc32)ccc1OCc1ccncc1` [Example 18, 3-(3,4-Dimethyl-1H-indol-1-yl)-N′-(3-methoxy-4-(pyridin-4-ylmethoxy)benzylidene)propanehydrazide], the half-inhibitory concentration (IC50) was 46 nM.

The record behind these values is patent US20110033393A1, “Hydrazone Compounds and Their Use” (priority 2009, published 2011).
